Source: patent US20120283096A1, “AGENT FOR IMPROVING PLANT GROWTH, SEEDS, AND METHOD FOR IMPROVING PLANT GROWTH” (Incorporated Administrative Agency National Agricu lture …, priority 2010, published 2012)

What was measured:
sulfide ion generation = test: Inhibition of sulfide ion generation, paddy seeds covered with slightly-soluble substances (Example 2-3, FIG. 9); conditions: approximately 0.1 mmol/g (per dry seeds) in terms of molybdenum or tungsten
Description: The water on slightly germinated seeds was lightly wiped off, and immediately after that, the seeds were put with (lightly covered with) various amounts of the slightly-soluble substances shown in Table 1. […] The number of days for which sulfide ion generation was inhibited and the proportion of seedling establishment were examined.

soybean [1] = test: Seedling establishment of soybean seeds submerged for two days (Example 6a-1, FIG. 20e); type: in vivo; conditions: 0.01 mmol to 0.5 mmol molybdenum per gram of dry seed, 25° C., versus untreated seeds
Procedure: Soil was prepared in the same manner as in Example 6-1. Next, soybean seeds (branded as Fukuyutaka) not subjected to treatment such as soaking in advance were soaked for one minute in a tenfold diluted solution of a commercially available laundry starch (manufactured by Rocket Soap Co., Ltd.; My Laundry Starch) containing approximately a little less than 10% by weight of polyvinyl alcohol. Then, the seeds were spin-dried for thirty seconds in a commercially available washing machine for removal of the extra water. […] These seeds were buried so that the upper edge of each seed was at the same height as the soil surface. In an artificially-lit (amount of light 0.4 mmol/m^2/s, lit for twelve hours per day) room at 25° C., water was added immediately after seeding so that the surface water was 15 mm high. After two days, the surface water was sucked up with a pipette for removal. Six containers were allotted for each condition, and the proportion of seedling establishment (proportion of individual plants that survived) was measured two weeks after seeding. It should be noted that in FIG. 20e, the horizontal axis represents the number of moles (mmol) of molybdenum that adhered per gram of dry seed. In FIG. 20e, the dots correspond to the numbers of moles of 0 (UNTREATED), 0.01, 0.02, 0.05, 0.1, 0.2, and 0.5 mmol, starting from the left. […]

barley = test: Avoidance of wet damage to barley in a poorly-drained paddy field (Example 7, FIG. 21); type: in vivo
Description: To a poorly-drained paddy field in Chikugo City, Fukuoka Prefecture, 1.2 t/10 a of cow manure and ammonium sulfate in an equivalent amount of 6 kg/10 a in terms of nitrogen were applied. In November 2009, 9 kg/10 a of barley seed (branded as Nishinochikara) was planted. In February 2010, the paddy field was partitioned by corrugated plates into eight areas 50 cm×70 cm each. On Feb. 19, 2010 or Mar. 17, 2010, ammonium molybdophosphate was applied in equivalents amounts of 0, 0.03, 0.1, 0.3 mol/m^2 in terms of molybdenum. On May 11, 2010, the shoots of the barley in the areas partitioned from one another by the corrugated plates were harvested, and the dry weight was obtained.

[2] = Molybdenum concentration of aqueous solutions/supernatants measured by ICP-AES versus calculated values (FIGS. 5 and 6); type: physicochemical; conditions: water, FIG. 6
Procedure: Similarly, aqueous solutions of the slightly-soluble molybdenum-containing substances (as indicated by “Slightly-soluble” in the column “Water solubility” in Table 1) in varying concentrations were prepared. […] In particular, ammonium molybdophosphate (MoPNH), which is a salt of a heteroacid, stops dissolving at a molybdenum amount of approximately 0.2 mM or higher, and can therefore be kept at an especially low concentration.

decay of paddy seeds = test: Decay-inhibiting effect in tank farming without soil (Example 3); conditions: seeds covered with substance, soaked two weeks in water at 30° C.
Procedure: The decay-inhibiting effect of molybdenum-containing substances in tank farming without soil was examined.
The possibility of growth and the inhibition of decay were determined in the same manner as above.

soybean [3] = test: Seedling establishment of soybean seeds with ammonium molybdophosphate (Example 5, FIG. 12); type: in vivo; conditions: 20° C. and 30° C., after two weeks
Procedure: As in Example 4-1, ammonium sulfate in an equivalent amount of 10 g/m^2 in terms of nitrogen and potassium chloride equivalent to 5 g/m^2 of potassium as potassium oxide were added as a solution to paddy humid soil, on the condition that the weight of dry soil is 100 kg/m^2. The soil was placed into each container (in the shape of a cylinder approximately 7 cm in diameter) in an amount equivalent to 100 g of dry soil, shaken for approximately one hour, and left at rest for two days at 4° C. It should be noted, however, that the soil-to-liquid ratio was 0.7. On this condition, the soil surface became substantially as high as the water surface. Barley seeds (branded as Nishinochikara) and soybean seeds (branded as Fukuyutaka) not subjected to treatment such as soaking in advance were soaked in water for one minute. Immediately after the extra water was removed, the seeds were put with a […] molybdenum amount of ammonium molybdophosphate (purchased from Wako Pure Chemical Industries, Ltd.) per gram of dry seed. The seeds were then half-buried in the samples of soil. […] Six containers were allotted for each condition, and the proportion of seedling establishment (proportion of individual plants that survived) was measured after two weeks.

Triammonium 12-moblydo(VI)phosphate trihydrate [Ammonium molybdophosphate]
number of days for which sulfide ion generation was inhibited (sulfide ion generation): fourteen | proportion of seedling establishment (soybean [1]): improvements in proportion of seedling establishment | dry weight of the shoots at harvest time, trend with amount applied (barley; 0.03 to 0.3 mol/m^2 in terms of molybdenum): increase in dry weight of the shoots | dry weight of the shoots at harvest time (barley; approximately 0.3 mol/m^2 molybdenum applied in February): approximately 0.25 kg/m^2 | molybdenum amount at which the substance stops dissolving [2]: approximately 0.2 mM | Inhibition of decay, Amount of molybdenum or tungsten added to seed (decay of paddy seeds): <0.01 mmol/g | proportion of seedling establishment (soybean [3]): improvements in proportion of seedling establishment
